Assays:
[1] = Pharmacokinetics and bioavailability in male mice after a single dose; assay type: in vivo
ALK2 (ACVR1) = ALK2 (ACVR1) (Homo sapiens (Human), UniProt Q04771); assay: In vitro kinase assay (33P ATP), ALK2; assay type: biochemical; conditions: 10 μM ATP; read-out: Inhibition of ALK2 (IC50 μM)
p-SMAD2 = p-SMAD2 inhibition, Western Blot Analysis in MDA-MB-231 cells treated with TGFβ; assay type: cell-based; conditions: Homo sapiens, TGFβ 2 ng/mL, samples run in triplicate; for inhibition at 0.1 µM: 0.1 μM compound, read-out: Average p-SMAD2 inhibition @ 0.1 μM (% Inh); for inhibition at 0.5 µM: 0.5 μM compound, read-out: Average p-SMAD2 inhibition @ 0.5 μM (% Inh)
[2] = Plasma and brain concentrations at 0.5 and 1 h; assay type: in vivo, mice; conditions: PO

Sequence of ALK2 (ACVR1) (Q04771 21-509): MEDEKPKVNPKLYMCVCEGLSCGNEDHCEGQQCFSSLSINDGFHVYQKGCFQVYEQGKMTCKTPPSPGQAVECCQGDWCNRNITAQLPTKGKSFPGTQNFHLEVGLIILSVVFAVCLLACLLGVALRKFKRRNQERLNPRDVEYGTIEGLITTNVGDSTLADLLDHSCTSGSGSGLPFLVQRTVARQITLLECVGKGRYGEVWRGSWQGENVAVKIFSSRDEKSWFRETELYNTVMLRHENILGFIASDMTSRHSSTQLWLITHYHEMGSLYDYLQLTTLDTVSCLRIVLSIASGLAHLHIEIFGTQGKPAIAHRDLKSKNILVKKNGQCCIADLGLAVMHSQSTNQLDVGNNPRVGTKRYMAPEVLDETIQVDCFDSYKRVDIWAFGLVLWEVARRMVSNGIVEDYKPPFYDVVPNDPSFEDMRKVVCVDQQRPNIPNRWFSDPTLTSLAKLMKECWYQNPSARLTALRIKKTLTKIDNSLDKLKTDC

## C=C(C)c1cnc(-c2cc(Cl)ccc2F)cc1Nc1ccncc1C(=O)NCC(C)O (single isomer, unassigned) [Compound 3a]
[1]; Intravenous, 2 mg/kg
  AUClast: 2.56 µM·h
  CL: 12.8 mL/min/kg
[1]; Oral, 10 mg/kg
  AUClast: 10.5 µM·h

## COc1cnc(-c2cc(Cl)ccc2F)cc1Nc1ccncc1C(=O)NCC(C)O (single isomer, unassigned) [Compound 13a]
ALK2 (ACVR1)
  IC50: > 100 µM

## CC(C)c1cnc(-c2cc(Cl)ccc2F)cc1Nc1n[nH]cc1C(=O)NC[C@H](C)O (single isomer, unassigned) [Compound 21a, 3-[[2-(5-chloro-2-fluoro-phenyl)-5-isopropyl-4-pyridyl]amino]-N-(2-hydroxypropyl)-1H-pyrazole-4-carboxamide]
p-SMAD2
  inhibition at 0.1 µM: 4.67%
  inhibition at 0.5 µM: 7.67%

## C=C(C)c1c(Nc2ccncc2C(=O)NCC(C)O)cc(-c2cc(Cl)ccc2F)nc1N (single isomer, unassigned) [Compound 23a]
[1]; Intravenous, 2 mg/kg
  AUClast: 1.11 µM·h
  CL: 66 mL/min/kg
[1]; Oral, 10 mg/kg
  AUClast: 0.907 µM·h

## CC(C)c1cnc(-c2cc(Cl)ccc2F)cc1Nc1ccncc1CNC[C@H](C)O [Compound 5a, (S)-1-((4-(2-(5-chloro-2-fluorophenyl)-5-isopropylpyridin-4-ylamino)pyridin-3-yl)methylamino)propan-2-ol]
p-SMAD2
  inhibition at 0.1 µM: 14.3%
  inhibition at 0.5 µM: 41.3%

## C=C(C)c1cnc(-c2cc(Cl)ccc2F)cc1Nc1ccncc1C(=O)N[C@H](C)CO [Compound 7b, (2R)-4-[[2-(5-chloro-2-fluoro-phenyl)-5-isopropenyl-4-pyridyl]amino]-N-(2-hydroxy-1-methyl-ethyl)pyridine-3-carboxamide]
ALK2 (ACVR1)
  IC50: > 100 µM

## C=Cc1cnc(-c2cc(Cl)ccc2F)cc1Nc1ccncc1C(=O)NC[C@H](C)O [Compound 10a, (S)-4-(2-(5-chloro-2-fluorophenyl)-5-vinylpyridin-4-ylamino)-N-(2-hydroxypropyl) nicotinamide]
p-SMAD2
  inhibition at 0.5 µM: 64.3%

## CC(C)c1cnc(-c2cc(Cl)ccc2F)cc1Nc1ccncc1C(=O)NCCN [Compound 19, N-(2-aminoethyl)-4-[[2-(5-chloro-2-fluoro-phenyl)-5-isopropyl-4-pyridyl]amino]pyridine-3-carboxamide]
[2]; 0.5 h
  Brain Concentration (μM): BLQ
[2]; 1 h
  Brain Concentration (μM): BLQ

## C=C(C)c1cnc(-c2cc(Cl)ccc2F)cc1Nc1n[nH]cc1C(=O)NC[C@H](C)O [Compound 20a, (S)-3-[[2-(5-chloro-2-fluoro-phenyl)-5-isopropenyl-4-pyridyl]amino]-N-(2-hydroxypropyl)-1H-pyrazole-4-carboxamide]
p-SMAD2
  inhibition at 0.1 µM: 0%
  inhibition at 0.5 µM: 3.67%

— patent US10501436B2, “Compounds and methods of use” (Medivation Technologies LLC, priority 2014, dated 2019)
